The source of these data is US20250073202A1, “METHODS TO TREAT RENAL DISORDERS USING CALCIUM CHANNEL INHIBITORS” (The Trustees of Indiana University, priority 2018, published 2025).

“Also recorded” adds a separate entry of the source.

The subject of experiment [1] is AKI-primed CD4+ cells. Kind of experiment: Fura-2 imaging of intracellular Ca2+ responses in AKI-primed CD4+ cells. The experiment is classed as cell-based, rat. Particulars: superfusate with Ang II and elevated Na+; to levels similar to sham. As to the method:
To assess Ca^2+ responses, fura2 imaging was performed. Briefly, isolated CD4+ T cells were loaded with fura-2AM (2.5 μM, Sigma, St. Louis, MO) for 45 min, washed, placed on poly-lysine (Sigma) coated coverslips and placed in a superfusion chamber with physiological salt solution (PSS) containing 2 mM Ca^2+. The chamber was mounted on an inverted epifluorescence microscope and signal measured with alternating excitation at 340 and 380 nm and emission at 510 nm using the InCa^2+-imaging system (Intracellular Imaging Systems, Cincinnati, OH). Data were acquired at 1.5 Hz and representative tracings were smoothed to the 10 nearest neighbor points using GraphPad Prism. For analysis, an increase in signal intensity of >1 standard deviation from baseline was considered a positive response. Frequency of responding cells was determined from an average 53±19 cells for each animal.

Experiment [2] concerns renal ischemia reperfusion injury. Kind of experiment: Bilateral renal ischemia/reperfusion (I/R) injury in rats, 24 hours after reperfusion (Study II). The experiment is classed as in vivo, rat. As to the method:
All studies used male Sprague-Dawley rats (250-300 g) that were purchased from Envigo (Indianapolis, IN). Rats were anesthetized with a cocktail of ketamine (100 mg·kg^−1, KetoVed, Vedco Inc, St. Joseph, MO) and xylazine (50 mg·kg^−1, AnaSed, Lloyd Inc, Shenandoah IA). Rats were placed on a heated surgical table to maintain body temperature. A midline incision and either unilateral (left) or bilateral renal ischemia (as indicated in Results) was induced by applying micro-aneurism clamps on the renal pedicles for a period of 40 min. Re-establishment of perfusion was verified by visual examination following removal of the clamps. Rats were provided post-operative analgesia using buprenorphine-SR (1 mg·kg^−1).
Rats were allowed to recover for various periods of time as described in the Results. In Study I, lymphocytes were studied in vitro after recovery for either 2 or 7 days following I/R or sham surgery for evaluation of function in vitro or for FACS analysis. In Study II, the effect of SOCE on kidney injury was studied with the inhibitor YM58483/BPT2 (N-[4-[3,5-Bis(trifluoromethyl)-1H-pyrazol-1-yl]phenyl]-4-methyl-1,2,3-thiadiazole-5-carboxamide; Tocris/Bio-Techne Minneapolis, MN). Rats were pretreated p.o. 2-3 hours prior to surgery with YM58483.BPT2 (1 mg·kg^−1) in sugar-free chocolate pudding following dilution in 100% EtOH, at, a dose previously shown to affect T cell activation in rats. In some experiments, rats were also treated with the IL17Rc (150 ng/day i.p; R&D Systems). In addition, one experiment utilized a model of rhabdomyolysis, induced by injection of 50% glycerol (10 ml/kg) into the hindlimb muscle of rats following 16 hours of water restriction.
To measure creatinine, tail blood was collected in heparin containing tubes and centrifuged to collect plasma. Plasma creatinine was measured using a Pointe Scientific Analyzer and Creatinine Assay reagents using methods outlined by the manufacturer (Pointe Scientific, Canton MI). Urine was collected for 24 hours by placing rats in metabolic cages and urine volume was determined gravimetrically. Urine creatinine was measured using a colorimetric assay adopted for microplate readers. Creatinine clearance was measured using UCr*V/PCr. […]
Freshly harvested kidneys were minced and digested in liberase (2 μg/ml. Roche, Indianapolis IN) for 15 min at 37° C. using Gentle MACs (Miltenyli, San Diego, CA). The digested tissue was filtered through a 100-μm mesh and washed with RPMI containing 10% fetal bovine serum (Invitrogen). Mononuclear cells were isolated using Percol (Sigma) density gradient centrifugation.
To evaluate protein expression of IL17 or Orai1, Orai2 or Orai3, cells were restimulated with PMA and ionomycin for 6 hours in the presence of monensin (Golgistop, 1 μg·ml, BD Biosciences) permeabilized with saponin ([…]) and stained with relevant antibody. Cells were scanned using flow cytometry (FACSCalibur, BD Biosciences, San Jose, CA) and scans were analyzed using Flowjo software (Tree Star, Ashland, OR).
The effect of SOCE on early ischemic kidney injury was studied with the inhibitor YM58483/BPT2 (N-[4-[3,5-Bis(trifluoromethyl)-1 H-pyrazol-1-yl]phenyl]-4-methyl-1,2,3-thiadiazole-5-carboxamide; Tocris/Bio-Techne Minneapolis, MN). Rats were pretreated 2-3 hours prior to surgery, p.o. in sugar-free chocolate pudding following dilution in 100% EtOH, at 1 mg·kg^−1, a dose previously shown affect T cell activation in rats. To evaluate if SOCE influences Th17 cells in AKI, rats were fed YM58483/BPT2 approximately 2 hours prior to […] and reperfusion. […] YM58483/2BPT2 also attenuated the infiltration of total CD4+ and CD8+ T-cells, B-cells, and dendritic cells following I/R (FIGS. 3C, 3D, 3E, and 3F).

Where [3] appears, read: 24 hours following I/R, listed as YM58483/2BPT2.
Setting [4] is: 24 hours following I/R, listed as YM58483/BPT.
[5] abbreviates: 24 hours following ischemia reperfusion, mean ± S.E.

On to `Cc1nnsc1C(=O)Nc1ccc(-n2nc(C(F)(F)F)cc2C(F)(F)F)cc1` [YM58483/BPT2, N-[4-[3,5-Bis(trifluoromethyl)-1H-pyrazol-1-yl]phenyl]-4-methyl-1,2,3-thiadiazole-5-carboxamide], for which the “percentage of Ca2+-responding cells” value in experiment [1] is “significantly attenuated”. Further, the “mRNA expression of kidney injury marker-1 (Kim-1)” value in experiment [2] (24 hours after reperfusion, 1 mg/kg p.o. pretreatment) is “significantly attenuated”. Besides, the “level of renal injury as plasma creatinine (vs vehicle)” value in experiment [2] (24 hours after reperfusion, YM58483 1 mg/kg p.o. 2-3 hours prior to surgery) was “significantly attenuated; also recorded: significantly reduced”. Further, in experiment [2] (24 hours following I/R), the “CD8+ cells in kidney (vs vehicle)” value is given as “did not significantly effect”, the Th1 cells post-ischemia result was “did not significantly influence”, the Th2 cells post-ischemia result was “did not significantly influence” and the “infiltration of B-cells in kidney” value is “attenuated”. In experiment [2] (24 hours following I/R), the “infiltration of dendritic cells in kidney” value is listed as “attenuated” and the “kidney CD4+/IL17+ cells (vs vehicle)” value is reported as “reduction was observed”. Moreover, in experiment [2] (24 hours following I/R, 1 mg/kg p.o. pretreatment), the “reduction of total IL17 expressing cells relative to vehicle” value was ~78%. Besides, the “infiltration of total CD4+ T-cells in kidney (vs vehicle)” value (“infiltration … (vs vehicle)” for short) in experiment [2] (24 hours following I/R, listed as YM58483/2-BPT) is recorded as “attenuated”. In experiment [2] (setting [3]), the “CD8+ cells in kidney (vs vehicle)” value is “attenuated” and the “infiltration … (vs vehicle)” value is on record as “attenuated”. In experiment [2] (setting [4]), the “infiltration … (vs vehicle)” value is on record as “significantly reduced” and the “kidney CD4+/IL17+ cells (vs vehicle)” value was “significantly reduced”. Besides, in experiment [2] (setting [5]), the “CD4+ renal lymphocyte content” value is 26156 ± 4365 cells/gram, the “CD4+/IL-17+ cells” value is reported as 2020 ± 731 cells/gram, the “CD8+ cells renal lymphocyte content” value stood at 8410 ± 1386 cells/gram and the “CD8+IL-17+ cells” value is on record as 127 ± 23 cells/gram. Moreover, in experiment [2] (setting [5]), the “Serum Creatinine” value turned out to be 3.7 ± 0.6 mg/dL and the “Total IL-17+ cells” value stood at 9334 ± 4293 cells/gram.
